Test results taken from paper PMC10933169, “Potent anticancer activity of (Z)-3-hexenyl-β-D-glucopyranoside in pancreatic cancer cells” (Naunyn-Schmiedeberg's Archives of Pharmacology, 2023).
Several values for one entry are separate records, joined by “and”; a condition that tells them apart may be missing. Equal entries are not always repeated.

Assays:
Format in all cases: cell-based
[1] = tested on: Panc1 (pancreatic carcinoma) cells; assay: MTT cytotoxicity assay, Panc1; settings: Homo sapiens, PANC-1, 48 h treatment
Procedure: (§1) The cell lines PANC-1 (pancreatic carcinoma), MCF7 (breast carcinoma), HepG2 (hepatocellular carcinoma), and WI-38 (normal lung fibroblast cells) were obtained from the American Type Culture Collection (ATCC) located in Manassas, Virginia, United States. These cell lines were cultured in DMEM (Invitrogen, Life Technologies, Rockville, MD, USA) medium supplemented with 10% FBS (Fetal Bovine Serum, Hyclone, Thermo Fisher Scientific, Waltham, MA, USA) and 1% penicillin (Sigma-Aldrich, Louis, MO, USA). The cells were maintained at 37°C in a 5% CO2 and 95% humidity environment for a maximum period of two weeks to ensure their viability for further experimentation. Cell detachment was achieved using a solution containing 0.25% (w/v) trypsin (Sigma-Aldrich, Louis, MO, USA) and 0.53 mM EDTA ((Sigma-Aldrich, Louis, MO, USA), followed by re-cultivation in fresh media.
The cultivated cells were seeded in 96-well plates at a concentration of 1 × 10^4 cells/100 μL per well (Naik et al. [2014]). The cultured plates were then incubated for 24 hours at 37°C. […] The tested concentrations of the compounds (1, 10, 30, and 100 µg/mL) in 0.01 - 0.1% DMSO in ddH2O were prepared by diluting the stock solutions with double-distilled water (ddH2O). […] A negative control using 0.1% DMSO in ddH2O was also included. The treated cells were further incubated for 48 hours at 37 °C. The media of the treated and control plates were removed and replaced by fresh media containing MTT (Sigma, Louis, MO, USA) reagent in a concentration of 1 mg/mL (Ponnusamy et al. [2016]), then incubated for 2 hours. The viability of the cancer cells was determined by measuring the amount of formazan formed by viable cells. […] The intensity of the produced colour was measured using an ELISA plate reader (Bio-Tek EL 800, Agilent technology, Santa Clara, CA, USA) at wavelength of 570 nm. The percent of cells viability was calculated by the following equation: %viability=AA570oftreated-AA570ofblank/AA570ofcontrol-AA570ofblank×100
(§2) AA Average of triplicate absorbances for each sample concentration

[2] = tested on: Casp3 gene expression in Panc1 cells; assay: SYBR Green RT-PCR gene expression, caspase3; settings: 48 h, (Z)-3-hexenyl-β-D-glucopyranoside at 10 µM, control 1
Procedure: (§3) The effects of 10 µM of (Z)-3-hexenyl-β-D-glucopyranoside on the mRNA expression of caspase3, bax, and Bcl-2 genes were investigated using the reverse transcription-polymerase […] technique. After a 48-hour incubation of (Z)-3-hexenyl-β-D-glucopyranoside in Panc1 (pancreatic carcinoma) cells, mRNA isolation of the selected proteins was performed using the RN easy extraction kit (Qiagen, Hilden, Germany), following previously described methods (Janicke et al. [1998]). For real-time quantitative PCR of the RNA templates, a one-step RT-PCR kit with SYBR® Green (Bio-Rad SYBR Green PCR MMX, Hercules, California, USA) was added to a 25 μL 2X SYBR® Green RT-PCR reaction mix (Bio-Rad, Hercules, California, USA). The reaction mix contained 2X reaction buffer with 0.4 mM of each dNTP, magnesium chloride, iTaq DNA polymerase, 20 nM fluorescein SYBR® Green I dye, stabilizers, 11 μL nuclease-free water, 1.5 μL reverse primer (10 μM), 1.5 μL forward primer (10 μM), 1 μL iScript reverse transcriptase, and RNA template (1 pg to 100 ng total RNA). The cDNA synthesis and PCR amplifications were performed in the same tube using Rotor-Gene RT-PCR (Qiagen, Hilden, Germany) software 1.7 (Abed et al. [2021]). The primers used in the RT-PCR reaction were obtained from Corbett Life Science Division (Reg. No. QEC21313), Corbett Research, Mortlake, Australia. […]

[3] = tested on: Bcl-2 gene expression in Panc1 cells; assay: SYBR Green RT-PCR gene expression, Bcl-2; settings: 48 h, (Z)-3-hexenyl-β-D-glucopyranoside at 10 µM, control 1
Procedure: as §3

[4] = tested on: WI-38 (normal lung fibroblast cells); assay: MTT cytotoxicity assay, WI-38 normal cells; settings: 48 h treatment, read-out: Cytotoxicity IC50 WI38
Procedure: as §1, with “Cell detachment was achieved using a solution containing 0.25% (w/v) trypsin (Sigma-Aldrich, Louis, MO, USA) and 0.53 mM EDTA ((Sigma-Aldrich, Louis, MO, USA), followed by re-cultivation in fresh media.” left out
(§4) The cultivated cells were seeded in 96-well plates at a concentration of 1 × 10^4 cells/100 μL per well (Naik et al. [2014]). […] The viability of the cancer cells was determined by measuring the amount of formazan formed by viable cells. […] The intensity of the produced colour was measured using an ELISA plate reader (Bio-Tek EL 800, Agilent technology, Santa Clara, CA, USA) at wavelength of 570 nm. The percent of cells viability was calculated by the following equation: %viability=AA570oftreated-AA570ofblank/AA570ofcontrol-AA570ofblank×100
as §2

[5] = MTT cytotoxicity assay, WI-38 normal cells; settings: human, WI-38 normal lung fibroblast cells, 48 h treatment, read-out: Cytotoxicity IC50 WI38
Procedure: as §1, with “Cell detachment was achieved using a solution containing 0.25% (w/v) trypsin (Sigma-Aldrich, Louis, MO, USA) and 0.53 mM EDTA ((Sigma-Aldrich, Louis, MO, USA), followed by re-cultivation in fresh media.” left out
as §4, §2

[6] = tested on: MCF7 (breast carcinoma) cells; assay: MTT cytotoxicity assay, MCF7; settings: Homo sapiens, 48 h treatment
Procedure: as §1, with “Cell detachment was achieved using a solution containing 0.25% (w/v) trypsin (Sigma-Aldrich, Louis, MO, USA) and 0.53 mM EDTA ((Sigma-Aldrich, Louis, MO, USA), followed by re-cultivation in fresh media.” left out
as §4, §2

[7] = tested on: Bax gene expression in Panc1 cells; assay: SYBR Green RT-PCR gene expression, Bax; settings: 48 h, (Z)-3-hexenyl-β-D-glucopyranoside at 10 µM, control 1.436
Procedure: as §3

[8] = tested on: Panc1 cells; assay: Flow cytometry analysis of cell DNA contents / cell cycle (propidium iodide); settings: 10 µM
Procedure: All reagents and kits for this assay were obtained from Abcam (Abcam Technology, Boston, MA, USA). The detection of DNA cell contents and cell cycle status was conducted following the established method (Xu et al. [2001]). To provide a brief overview, Panc1 pancreatic cancer cells (ATCC, Manassas, Virginia, USA) were cultured in a single-cell suspension in DMEM medium (Invitrogen, Life Technologies, Rockville, MD, USA). Subsequently, the cells were fixed in 66% ethanol (Sigma-Aldrich, Louis, MO, USA) and kept on ice for 2 hours. Afterward, the cancer cells were washed with a PBS (Sigma-Aldrich, Louis, MO, USA) solution (5 mL of 10X PBS + 45 mL water), re-cultured in fresh medium, and incubated at 37 °C for 24 hours. A concentration of 10 µM of (Z)-3-hexenyl-β-D-glucopyranoside was added in triplicate, chosen based on previously reported data (Ponnusamy et al. [2016]; Xu et al. [2001]) for 24h. The second dose of 10 µM of (Z)-3-hexenyl-β-D-glucopyranoside was added to the Panc1 cells then incubated for 24 h. Following a 48-hour incubation period from the first dose, the cells were trypsinized, fixed, and stained with propidium iodide-RNase enzyme reagent (9.45 mL PBS + 500 μL 20X propidium iodide + 50 μL 200X RNase) from Abcam Technology, Boston, MA, USA. […] The incubation time for fluorescence quantification was 30 minutes. The experiment was repeated twice.

[9] = tested on: HepG2 (hepatocellular carcinoma) cells; assay: MTT cytotoxicity assay, HepG2; settings: Homo sapiens, 48 h treatment
Procedure: as §1, with “Cell detachment was achieved using a solution containing 0.25% (w/v) trypsin (Sigma-Aldrich, Louis, MO, USA) and 0.53 mM EDTA ((Sigma-Aldrich, Louis, MO, USA), followed by re-cultivation in fresh media.” left out
as §4, §2

[10] = tested on: Panc1 cells; assay: Annexin V-FITC cellular apoptotic assay; settings: 10 µM, 48 h
Procedure: The reagents used in this assay included the Annexin V-FITC kit (Abcam Technology, Boston, MA, USA), 1X binding buffer (Abcam Technology, Boston, MA, USA), and propidium iodide (Bio Vision Research Products, Mountain View, CA, USA). Panc1 cells were seeded in 6-well plates and incubated at 37 °C for 24 hours. Compound 1 ((Z)-3-hexenyl-β-D-glucopyranoside) was then added to the cultivated Panc1 6-well plates at a concentration of 10 µM and incubated for 48 hours. Subsequently, the cancer cells were trypsinized and centrifuged for 10 minutes at 300 rpm. The resulting precipitate was resuspended in 500 µL of 1X binding buffer. Annexin V-FITC (5 µL) and propidium iodide (5 µL) reagents were added to the treated cancer cell plates and incubated for 5 minutes in the dark at room temperature. A flow cytometer (Novocyte, Agilent technology, Santa Clara, CA, USA) with an excitation maximum of 488 nm and an emission maximum of 530 nm was employed to measure the intensity of annexin-binding phosphatidylserine (PS) and consequently determine the amount of apoptotic cells (Koopman et al. [1994]).

| Structure (SMILES) | IC50 [1] | RT-PCR results fold change Casp3 [2] | RT-PCR results fold change Bcl-2 [3] | IC50 [4] | IC50 at 48 h [5] | IC50 [6] | RT-PCR results fold change Bax [7] | Cell cycle effect (Comment) [8] | DNA content %G2/M ([8]; control 10.47) | DNA content %S ([8]; control 32.11) | DNA content %G0-G1 ([8]; control 57.42) | Cell cycle effect (Comment) ([8]; listed as E-W-4) | IC50 [9] | Necrosis [10] | Apoptosis Late ([10]; control 0.28%) | Apoptosis Early ([10]; control 0.47%) | Apoptosis Total ([10]; control 1.86%) |
| --- | --- | --- | --- | --- | --- | --- | --- | --- | --- | --- | --- | --- | --- | --- | --- | --- | --- |
| O=C(O)c1cc(O)c(O)c(O)c1 [Gallic acid] | 21.8 µM | – | – | – | – | – | – | – | – | – | – | – | – | – | – | – | – |
| Oc1cccc(O)c1O [Pyrogallol] | 198 µM | – | – | – | – | – | – | – | – | – | – | – | – | – | – | – | – |
| CCC=CCCOC1OC(CO)C(O)C(O)C1O [Compound 1, (Z)-3-hexenyl-β-D-glucopyranoside] | 7.6 µM | 4.064 fold | 0.231 fold | 195 µM | 194 µM | 109 µM | 3.173 fold | cell growth arrest at the S phase | 3.38% | 44.01% | 52.61% | Cell growth arrest@ S phase | 45.8 µM | 5.52% | 9.85% | 26.15% | 42% and 41.52% |
